What was measured:
Format in all cases: biochemical
PI3Kbeta = target: T1, PI3Kbeta (Homo sapiens, UniProt P42338); experiment: Human PI3K beta enzyme assay (HTRF, as for PI3K alpha); conditions: for inhibition at 1.11 µM: read-out: PI3Kbeta % inh; for IC50: read-out: IC50 (inhibit PI3Kbeta); for inhibition at 1.11 µM / PI3Kbeta % inh: at 1.11 μM
T1 construct: His (N); host or cells: SF9 insect cells (baculovirus)
Summary of the method: (§1)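 N-His p110β/δ co-expressed with untagged p85 in Sf9, p110γ alone. Enzyme 5.25 nM (β), 0.75 nM (δ), 5 nM (γ), with ATP 25 uM and di-C8 PI(4,5)P2 3.5 uM (added-solution levels), pH 7.00, 30 min RT. HTRF read-out: biotin-PIP3, GST-GRP-1 PH domain, Eu anti-GST, streptavidin-XL.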

PI3Kalpha = target: T2, PI3Kalpha (Homo sapiens, UniProt P42336); experiment: Human PI3Kα enzyme assay (HTRF); conditions: for inhibition at 1.11 µM: read-out: PI3Kalpha % inh; for PI3Kalpha % inh: at 1.11 μM
T2 construct: His (N); host or cells: SF9 insect cells (baculovirus)
Summary of the method: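 His-tagged p110α co-expressed with p85 in Sf9 cells was reacted for 30 min at room temperature in pH 7.00 Hepes buffer with 10 mM MgCl2. Addition solutions held 25 uM ATP, 3.5 uM di-C8 PI(4,5)P2 and 0.4875 nM enzyme. The reaction was quenched with EDTA/biotin-PIP3 and detected by HTRF (GST-GRP-1 PH domain, streptavidin-XL, Eu anti-GST) after 1 h.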

PI3Kgamma = target: T3, PI3Kgamma (Homo sapiens, UniProt P48736); experiment: Human PI3K gamma enzyme assay (HTRF, as for PI3K alpha); conditions: for inhibition at 1.11 µM: read-out: PI3Kgamma % inh; for PI3Kgamma % inh: at 1.11 μM
T3 construct: His (N); host or cells: SF9 insect cells (baculovirus)
T3 sequence (P48736 whole entry): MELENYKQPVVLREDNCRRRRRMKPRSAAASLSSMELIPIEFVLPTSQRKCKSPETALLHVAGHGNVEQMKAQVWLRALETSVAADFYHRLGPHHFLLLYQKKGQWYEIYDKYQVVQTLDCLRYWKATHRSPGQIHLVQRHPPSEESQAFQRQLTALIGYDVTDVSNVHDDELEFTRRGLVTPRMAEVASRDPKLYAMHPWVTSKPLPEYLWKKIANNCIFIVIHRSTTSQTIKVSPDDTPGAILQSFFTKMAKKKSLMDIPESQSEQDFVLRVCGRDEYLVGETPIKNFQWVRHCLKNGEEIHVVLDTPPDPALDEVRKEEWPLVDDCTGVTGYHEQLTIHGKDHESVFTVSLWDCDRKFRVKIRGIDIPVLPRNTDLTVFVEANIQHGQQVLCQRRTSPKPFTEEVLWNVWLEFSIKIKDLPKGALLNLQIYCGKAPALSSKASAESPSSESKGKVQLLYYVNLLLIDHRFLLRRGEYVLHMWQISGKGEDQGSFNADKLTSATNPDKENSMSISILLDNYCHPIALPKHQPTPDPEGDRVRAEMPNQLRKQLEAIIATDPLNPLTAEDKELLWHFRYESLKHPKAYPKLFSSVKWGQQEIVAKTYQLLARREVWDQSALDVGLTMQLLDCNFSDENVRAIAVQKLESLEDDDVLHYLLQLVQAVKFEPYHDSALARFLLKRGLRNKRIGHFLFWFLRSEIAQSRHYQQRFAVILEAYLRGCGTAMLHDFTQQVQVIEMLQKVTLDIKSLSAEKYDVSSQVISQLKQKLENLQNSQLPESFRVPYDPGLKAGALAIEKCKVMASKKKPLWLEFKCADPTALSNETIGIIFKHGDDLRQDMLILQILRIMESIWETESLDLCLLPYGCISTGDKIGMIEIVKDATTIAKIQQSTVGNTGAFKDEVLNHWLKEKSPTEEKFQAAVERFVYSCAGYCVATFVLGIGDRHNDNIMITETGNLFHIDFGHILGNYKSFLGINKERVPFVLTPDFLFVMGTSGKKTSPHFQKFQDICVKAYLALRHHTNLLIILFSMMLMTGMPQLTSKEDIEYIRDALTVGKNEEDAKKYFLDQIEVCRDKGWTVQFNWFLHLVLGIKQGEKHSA
Summary of the method: as §1

PI3Kdelta = target: T4, PI3Kdelta (Homo sapiens, UniProt O00329); experiment: Human PI3K delta enzyme assay (HTRF, as for PI3K alpha); conditions: for inhibition at 1.11 µM: read-out: PI3Kdelta % inh; for PI3Kdelta % inh: at 1.11 μM
T4 construct: His (N); host or cells: SF9 insect cells (baculovirus)
T4 sequence (O00329 whole entry): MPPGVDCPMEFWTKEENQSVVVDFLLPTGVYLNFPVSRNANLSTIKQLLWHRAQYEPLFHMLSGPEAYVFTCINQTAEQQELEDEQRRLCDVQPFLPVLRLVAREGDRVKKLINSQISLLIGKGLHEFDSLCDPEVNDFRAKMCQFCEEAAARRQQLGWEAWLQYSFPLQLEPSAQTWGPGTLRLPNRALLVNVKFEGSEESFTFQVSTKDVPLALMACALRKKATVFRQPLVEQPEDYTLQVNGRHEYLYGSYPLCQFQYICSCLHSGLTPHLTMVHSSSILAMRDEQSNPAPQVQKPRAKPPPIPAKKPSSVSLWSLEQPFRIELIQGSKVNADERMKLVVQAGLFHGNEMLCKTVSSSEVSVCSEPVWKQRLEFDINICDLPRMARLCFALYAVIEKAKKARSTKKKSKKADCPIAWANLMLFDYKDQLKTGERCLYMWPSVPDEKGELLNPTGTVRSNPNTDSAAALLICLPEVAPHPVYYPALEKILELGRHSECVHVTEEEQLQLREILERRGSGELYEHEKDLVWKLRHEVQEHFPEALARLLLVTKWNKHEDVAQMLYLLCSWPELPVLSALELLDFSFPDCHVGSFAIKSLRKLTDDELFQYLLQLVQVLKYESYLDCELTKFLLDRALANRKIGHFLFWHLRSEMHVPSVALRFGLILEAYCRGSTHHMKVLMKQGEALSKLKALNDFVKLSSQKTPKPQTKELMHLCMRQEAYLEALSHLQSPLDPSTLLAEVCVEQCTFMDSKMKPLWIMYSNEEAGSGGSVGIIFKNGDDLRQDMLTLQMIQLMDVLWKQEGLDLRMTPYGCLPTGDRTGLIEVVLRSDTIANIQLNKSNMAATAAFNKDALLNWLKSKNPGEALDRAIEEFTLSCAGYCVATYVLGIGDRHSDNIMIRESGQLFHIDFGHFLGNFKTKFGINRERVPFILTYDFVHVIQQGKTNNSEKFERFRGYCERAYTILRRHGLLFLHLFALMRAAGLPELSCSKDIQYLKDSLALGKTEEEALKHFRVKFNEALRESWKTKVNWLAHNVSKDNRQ
T4 sequence (P27986 whole entry partner): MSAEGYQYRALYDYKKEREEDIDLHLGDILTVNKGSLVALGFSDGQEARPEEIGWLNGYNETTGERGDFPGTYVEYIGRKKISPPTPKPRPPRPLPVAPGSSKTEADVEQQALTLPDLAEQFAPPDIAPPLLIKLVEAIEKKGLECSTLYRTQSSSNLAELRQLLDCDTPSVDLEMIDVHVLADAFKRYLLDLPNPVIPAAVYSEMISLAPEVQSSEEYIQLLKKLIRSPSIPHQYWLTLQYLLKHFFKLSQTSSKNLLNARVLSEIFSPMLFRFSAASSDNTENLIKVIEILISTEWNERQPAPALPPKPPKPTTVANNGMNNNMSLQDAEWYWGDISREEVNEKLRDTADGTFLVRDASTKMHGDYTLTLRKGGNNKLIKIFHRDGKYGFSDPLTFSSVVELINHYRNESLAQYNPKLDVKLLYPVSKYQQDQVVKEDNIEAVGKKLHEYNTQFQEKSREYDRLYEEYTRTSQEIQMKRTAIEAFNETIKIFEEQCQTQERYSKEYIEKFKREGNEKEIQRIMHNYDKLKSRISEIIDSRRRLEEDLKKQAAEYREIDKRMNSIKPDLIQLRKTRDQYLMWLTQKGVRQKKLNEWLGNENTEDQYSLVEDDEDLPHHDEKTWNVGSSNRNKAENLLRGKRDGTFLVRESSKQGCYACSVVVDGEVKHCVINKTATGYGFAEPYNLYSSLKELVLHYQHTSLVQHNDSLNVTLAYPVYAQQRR
Summary of the method: as §1

VPS34 = target: T5, VPS34 (Homo sapiens, UniProt Q8NEB9); experiment: Human VPS34 enzyme assay (Adapta Universal Kinase Assay); conditions: for inhibition at 1.11 µM: 1 h, read-out: VPS34 % ihn; for VPS34 % ihn: at 1.11 μM
T5 construct: GST (N); host or cells: SF9 insect cells (baculovirus)
T5 sequence (Q8NEB9 whole entry): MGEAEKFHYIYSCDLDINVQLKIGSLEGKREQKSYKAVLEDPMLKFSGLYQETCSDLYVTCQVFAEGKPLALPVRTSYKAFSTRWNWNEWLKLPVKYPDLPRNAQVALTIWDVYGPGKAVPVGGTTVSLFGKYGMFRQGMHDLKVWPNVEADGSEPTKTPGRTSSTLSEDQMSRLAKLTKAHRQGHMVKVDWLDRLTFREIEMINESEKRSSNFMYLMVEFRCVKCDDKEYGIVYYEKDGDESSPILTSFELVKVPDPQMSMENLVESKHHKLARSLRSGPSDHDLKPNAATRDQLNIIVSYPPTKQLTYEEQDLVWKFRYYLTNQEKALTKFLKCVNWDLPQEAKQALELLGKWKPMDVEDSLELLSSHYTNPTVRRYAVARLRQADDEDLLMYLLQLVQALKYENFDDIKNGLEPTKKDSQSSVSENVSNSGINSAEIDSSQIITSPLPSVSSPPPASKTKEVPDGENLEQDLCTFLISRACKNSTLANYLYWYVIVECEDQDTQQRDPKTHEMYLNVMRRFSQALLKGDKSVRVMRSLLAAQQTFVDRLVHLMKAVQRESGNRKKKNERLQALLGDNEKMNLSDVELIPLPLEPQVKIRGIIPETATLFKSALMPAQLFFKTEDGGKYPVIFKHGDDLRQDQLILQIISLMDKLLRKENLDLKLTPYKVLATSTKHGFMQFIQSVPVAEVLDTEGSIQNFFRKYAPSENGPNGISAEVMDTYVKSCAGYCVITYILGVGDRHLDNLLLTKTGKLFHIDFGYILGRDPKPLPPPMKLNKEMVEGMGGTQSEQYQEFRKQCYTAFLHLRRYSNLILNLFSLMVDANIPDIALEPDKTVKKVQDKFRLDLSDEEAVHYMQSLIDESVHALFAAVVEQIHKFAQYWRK
Experimental: VPS34 (accession number GB:BC033004) is cloned into pDEST20-Thombin as N-terminal GST tagged fusion proteins using the Gateway system (Invitrogen, catalog#11804-013). The sequences are verified before recombinant protein expression using the Baculovirus Expression System with Gateway® Technology.
For expression VPS34 was infected at 1MOI in SF9 cells and harvested 72 hours post infection.
For purification, VPS34 is purified by Glutathione Sepharose 4 Fast Flow (GE Healthcare #17-5132-03) followed by HiTrap Q (GE Healthcare #17-1153-01).
3) VPS34 is assayed using Adapta™ Universal Kinase Assay Kit (Invitrogen).
4) Human VPS34 enzyme assay method
100 mL compounds in DMSO are added to wells of a 384 well microtitre plate (Greiner 780076). At room temperature: 5 ul VPS34 reaction buffer (Invitrogen Assay Buffer Q (diluted 1 in 5 with nanopure water) plus 2 mM DTT and 2 mM MnCl2) containing ATP (20 uM, Promega) and 200 uM PI-PS substrate (Invitrogen PV5122) is added followed immediately by 5 ul VPS34 reaction buffer (as above) containing VPS34 (5 nM, Millennium Protein Sciences Group) and the mixture is incubated with shaking at room temperature for 1 hour. Then 5 ul VPS34 stop-detect mix (as per Invitrogen Adapta Assay kit (PV5009) instructions (contains kinase quench buffer, TR-FRET buffer, Adapta Eu anti-ADP antibody and Alexa Fluor 647 ADP tracer)) is added to quench the reaction. The plates are then incubated for 30 minutes at room temperature with shaking and then read on a BMG PheraStar Plus reader.

T1 sequence (P42338 whole entry): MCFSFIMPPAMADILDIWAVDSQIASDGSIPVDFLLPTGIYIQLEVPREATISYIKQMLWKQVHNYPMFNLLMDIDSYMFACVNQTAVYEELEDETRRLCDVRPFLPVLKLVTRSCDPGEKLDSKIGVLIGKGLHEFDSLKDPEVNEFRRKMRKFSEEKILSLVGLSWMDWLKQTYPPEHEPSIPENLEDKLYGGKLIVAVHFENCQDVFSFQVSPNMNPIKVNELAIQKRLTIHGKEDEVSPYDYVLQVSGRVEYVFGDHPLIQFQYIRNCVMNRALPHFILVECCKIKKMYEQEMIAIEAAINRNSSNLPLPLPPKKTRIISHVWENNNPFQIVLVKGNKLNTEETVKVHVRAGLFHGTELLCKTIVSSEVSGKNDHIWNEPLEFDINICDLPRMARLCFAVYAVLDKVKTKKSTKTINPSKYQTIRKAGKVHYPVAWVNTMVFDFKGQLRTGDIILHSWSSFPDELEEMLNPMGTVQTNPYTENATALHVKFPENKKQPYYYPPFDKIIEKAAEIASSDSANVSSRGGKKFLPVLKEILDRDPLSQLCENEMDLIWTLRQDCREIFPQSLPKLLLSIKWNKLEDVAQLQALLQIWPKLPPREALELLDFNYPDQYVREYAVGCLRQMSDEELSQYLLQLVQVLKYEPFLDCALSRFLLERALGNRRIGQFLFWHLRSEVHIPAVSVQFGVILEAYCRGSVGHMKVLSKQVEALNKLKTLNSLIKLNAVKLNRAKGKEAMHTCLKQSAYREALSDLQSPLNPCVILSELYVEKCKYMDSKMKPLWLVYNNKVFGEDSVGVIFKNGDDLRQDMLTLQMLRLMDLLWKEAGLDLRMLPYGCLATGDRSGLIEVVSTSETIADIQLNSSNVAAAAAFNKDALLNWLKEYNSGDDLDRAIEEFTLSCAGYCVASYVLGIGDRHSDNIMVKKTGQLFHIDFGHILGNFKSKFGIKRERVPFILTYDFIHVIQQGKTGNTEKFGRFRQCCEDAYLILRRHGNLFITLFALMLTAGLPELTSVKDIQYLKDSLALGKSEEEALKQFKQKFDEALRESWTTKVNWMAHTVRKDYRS
T1 sequence (P27986 whole entry partner): as the sequence (P27986 whole entry partner) above

Row | SMILES | inhibition at 1.11 µM (PI3Kbeta) | IC50 (PI3Kbeta) | inhibition at 1.11 µM (PI3Kalpha) | inhibition at 1.11 µM (PI3Kgamma) | inhibition at 1.11 µM (PI3Kdelta) | inhibition at 1.11 µM (VPS34) | PI3Kgamma % inh (PI3Kgamma) | VPS34 % ihn (VPS34) | PI3Kbeta % inh (PI3Kbeta) | PI3Kalpha % inh (PI3Kalpha) | PI3Kdelta % inh (PI3Kdelta)
1 | O=S1(=O)NC=C(c2ccc(Cl)cc2)c2cc(-c3ccncc3)sc21 [Compound 27, 4-(4-chlorophenyl)-6-pyridin-4-yl-2H-thieno[3,2-e][1,2]thiazine 1,1-dioxide] | 98.3% | 0.1 to 1 µM | 4.9% | 12.3% | 46% | 8.5% |  |  |  |  | 
2 | O=C1CC(c2ccc(Cl)cc2)c2cc(N3CCOCC3)sc21 (centres unmarked) [Compound 28, 4-(4-chlorophenyl)-2-morpholino-4H-cyclopenta[b]thiophen-6(5H)-one] | 105% | < 0.1 µM | 15.7% |  | 75% |  | 23.550% | 8.600% |  |  | 
3 | O=C1NCC(c2ccc(Cl)cc2)c2cc(-c3ccncc3)sc21 (centres unmarked) [Compound 30] | 94.9% | < 0.1 µM | 6.3% | 11.2% | 36% |  |  | −0.200% |  |  | 
4 | O=C1NCCCC(c2ccc(Cl)cc2)c2cc(-c3ccncc3)sc21 (centres unmarked) [Compound 31] | 83.3% | 0.1 to 1 µM | 16.6% | 6.9% | 50.5% | 2% |  |  |  |  | 
5 | O=C1CC(c2ccc(Cl)cc2F)c2cc(N3CCOCC3)sc21 (centres unmarked) [Compound 117] | 101% |  | 26.6% | 35.5% | 81.2% | 6.21% |  |  |  |  | 
6 | CN(C)C(=O)[C@@H]1NC(=O)c2sc(N3CCOCC3)cc2[C@H]1c1ccc(Cl)cc1 [Compound 125] | 71.8% |  | 22.6% | 16.7% | 44.5% | 24.4% |  |  |  |  | 
7 | NC(=O)[C@@H]1NC(=O)c2sc(N3CCOCC3)cc2[C@H]1c1ccc(Cl)cc1 [Compound 126] |  |  |  |  |  |  | 36.62% | 26.74% | 98.08% | 39.72% | 75.35%
8 | O=C1NCC(c2ccc(Cl)cc2)c2cc(N3CCOCC3)sc21 (centres unmarked) [Compound 128] |  |  |  | 45.9% | 87% | 36.3% |  |  | 107.54% | 18.03% | 
9 | O=C1CCC(O)C(c2ccc(Cl)cc2)c2cc(-c3ccncc3)sc21 (centres unmarked) [Compound 129] |  |  |  |  |  |  | 3.89% | −2.80% | 59.86% | 2.32% | 26.46%
10 | N#Cc1c(N2CCOCC2)sc2c1C(c1ccc(Cl)cc1)NC2=O (centres unmarked) [Compound 134, 4-(4-chlorophenyl)-2-(morpholin-4-yl)-6-oxo-5,6-dihydro-4H-thieno[2,3-c]pyrrole-3-carbonitrile] | 93.8% |  | 33% | 32.2% | 76.5% | 9.44% |  |  |  |  | 
11 | CC1(C)CNC(=O)c2sc(-c3ccncc3)cc2C1c1ccc(Cl)cc1 (centres unmarked) [Compound 140, 4-(4-chlorophenyl)-5,5-dimethyl-2-pyridin-4-yl-4,5,6,7-tetrahydro-8H-thieno[2,3-c]azepin-8-one] | 98.3% |  | 8.99% | 18.1% | 67.9% | 19.5% |  |  |  |  | 
12 | CN1CCC(c2ccc(Cl)cc2)c2cc(N3CCOCC3)sc2C1=O (centres unmarked) [Compound 141, 4-(4-chlorophenyl)-7-methyl-2-(morpholin-4-yl)-4,5,6,7-tetrahydro-8H-thieno[2,3-c]azepin-8-one] | 77% |  | 4.69% | 6.82% | 47.2% | 15.1% |  |  |  |  | 
13 | C[Si](C)(C)CCOCN1CC(O)(c2ccc3ccccc3c2)c2cc(N3CCOCC3)sc2S1(=O)=O (centres unmarked) [Compound 144, 6-(morpholin-4-yl)-4-(2-naphthyl)-2-{[2-(trimethylsilyl)ethoxy]methyl}-3,4-dihydro-2H-thieno[3,2-e][1,2]thiazin-4-ol 1,1-dioxide] | 101% |  | 41.6% | 67.8% | 111% | 5.73% |  |  |  |  | 
14 | O=C1CC(c2ccc(Cl)cc2)c2cc(N3CCOCC3)sc21 (centres unmarked) [Compound 145] |  |  |  |  |  |  | 50.45% | −1.31% | 101.66% | 18.36% | 88.59%
15 | CC1(C)C(=O)c2sc(-c3ccncc3)cc2C1c1ccc(Cl)cc1 (centres unmarked) [Compound 147, 4-(4-chlorophenyl)-5,5-dimethyl-2-(pyridin-4-yl)-4H-cyclopenta[b]thiophen-6(5H)-one] | 65.7% |  | 3.15% | 2.45% | 9.91% | 9.65% |  |  |  |  | 
16 | N#Cc1c(N2CCOCC2)sc2c1C(c1ccc(Cl)cc1)CNC2=O (centres unmarked) [Compound 149] | 108% |  | 46.1% | 29.1% | 80.9% | 4.85% |  |  |  |  | 
17 | N#Cc1c(N2CCOCC2)sc2c1C(c1c(F)cc(Cl)cc1F)CCNC2=O (centres unmarked) [Compound 155] | 113% |  | 64.7% | 42.6% | 104% | 11.6% |  |  |  |  | 
18 | O=C1NCC(c2ccc(Cl)cc2)c2cc(-c3ccncc3)sc21 (centres unmarked) [Compound 156] |  |  |  |  |  |  | 11.17% | −0.21% | 94.95% | 6.34% | 36.03%
19 | COc1cc(C2CC(=O)c3sc(N4CCOCC4)cc32)ccc1Cl (centres unmarked) [Compound 158] | 108% |  | 12.9% | 65.3% | 100% | 5.41% |  |  |  |  | 
20 | CC1(C)C(=O)c2sc(N3CCOCC3)cc2C1c1ccc(Cl)cc1 (centres unmarked) [Compound 161, 4-(4-chlorophenyl)-5,5-dimethyl-2-morpholino-4H-cyclopenta[b]thiophen-6(5H)-one] | 92.6% |  | 12.1% | 19.3% | 59.3% | 10.8% |  |  |  |  | 
21 | CN1CC(c2ccc(Cl)cc2)c2cc(-c3ccncc3)sc2C1=O (centres unmarked) [Compound 164] | 76.8% |  | -2.24% | 5.01% | 14% | 8.39% |  |  |  |  | 
22 | O=C1CC(c2ccc(Cl)c(Cl)c2)c2cc(N3CCOCC3)sc21 (centres unmarked) [Compound 171] | 106% |  | 48.1% | 64.4% | 111% | 16.8% |  |  |  |  | 
23 | O=C1NCCC(c2ccc(Cl)c(Cl)c2)c2nc(N3CCOCC3)sc21 (centres unmarked) [Compound 173] | 103% |  | 24.1% | 41.5% | 110% | 41.8% |  |  |  |  | 
24 | O=C1NCCC(c2ccc(Cl)cc2)c2nc(N3CCOCC3)sc21 (centres unmarked) [Compound 180, 8-(4-chlorophenyl)-2-(morpholin-4-yl)-5,6,7,8-tetrahydro-4H-[1,3]thiazolo[5,4-c]azepin-4-one] | 97.4% |  | 13.9% | 28.7% | 87.3% | 55.8% |  |  |  |  | 
25 | O=C1CC(c2ccc(Cl)cc2)c2cc(-c3ccncc3)sc2N1 (centres unmarked) [Compound 182, 4-(4-chlorophenyl)-2-(pyridin-4-yl)-4,5-dihydrothieno[2,3-b]pyridin-6(7H)-one] | 61.2% |  | 2.99% | 3.51% | 48.5% | 14% |  |  |  |  | 
26 | O=C1CC(c2ccc3ccccc3n2)c2cc(N3CCOCC3)sc21 (centres unmarked) [Compound 183] | 90.4% |  | 26.9% | 20.6% | 60.1% | 9% |  |  |  |  | 

From patent US8765746B2 (Millennium Pharmaceuticals, Inc., priority 2010, dated 2014)
